In series [1] the target is T1, Proteinase K (Parengyodontium album, UniProt P06873).
T1 construct: purchased Qiagen, Hilden, Germany
Also on record: method as in PMID 10417311. The settings on record: after 2 h; cited from earlier work.
Protocol: In order to assess the enzymatic degradation of LL-37 and the protective potential from the CaPS nanocarriers, a degradation assay utilizing Proteinase K was performed (Sodium Dodecyl Sulfate–Polyacrylamide Gel Electrophoresis, SDS-PAGE).

Series [2] addresses T1, Proteinase K. As to the kind of experiment: Proteinase K degradation assay (SDS-PAGE). The series is classed as in vitro ADME. Conditions: 0.5 µg LL-37, 20 ng Proteinase K, 20 mM Tris-HCl pH 8.0, 37 °C, up to 240 min, at least three repetitions. On the procedure:
A total of 0.5 µg LL-37, either loaded on nanoparticles or not, was subjected to Proteinase K degradation assay. Input samples were taken without Proteinase K added, as a positive control and is considered to be “100%” when calculating protein amounts. LL-37 was incubated in 20 mM Tris-HCl, pH 8.0 with a total of 20 ng Proteinase K (Qiagen, Hilden, Germany) added to the reaction. Samples were incubated at 37 °C until given timepoints where the reaction was stopped by the addition of SDS loading buffer (at a final concentration of 50 mM Tris-HCl pH 6.8, 2% SDS, 10% glycerol, 1% β-mercaptoethanol, 12.5 mM EDTA and 0.02% Bromophenol blue) and samples were then immediately boiled for 10 min at 98 °C.
Samples were loaded onto a NuPAGE 4%–12% Bis-Tris gel (Invitrogen, Carlsbad, CA, USA) and run in MES-buffer (Invitrogen) at 40 mA/gel. Since LL-37 is a small peptide, samples were run only halfway through the gel. The gels where then washed in Mill-Q water 3 times, 10 min before immersion in Imperial Protein Stain (Thermo Scientific) for 1 h. After that Mill-Q water was used to destain the gels before image acquisition on GelDoc XRS+ (Bio-Rad, Hercules, CA, USA). Bands were quantified using Image Studio Lite v. 5.2 (LI-COR Biosciences, Lincoln, NE, USA).

Each structure is given as a SMILES string.

T1 sequence (P06873 106-384): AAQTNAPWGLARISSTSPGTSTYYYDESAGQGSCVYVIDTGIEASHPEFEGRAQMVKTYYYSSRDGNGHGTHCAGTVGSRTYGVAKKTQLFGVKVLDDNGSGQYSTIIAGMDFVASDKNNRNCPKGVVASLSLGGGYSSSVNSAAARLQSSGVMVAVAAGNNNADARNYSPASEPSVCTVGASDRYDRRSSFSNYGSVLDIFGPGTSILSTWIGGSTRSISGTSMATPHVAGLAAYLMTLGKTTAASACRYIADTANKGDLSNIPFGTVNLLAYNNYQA

For `CC[C@H](C)[C@H](NC(=O)[C@H](CCCCN)NC(=O)[C@H](CCC(=O)O)NC(=O)[C@H](CCCCN)NC(=O)[C@H](CO)NC(=O)[C@H](CCCCN)NC(=O)[C@H](CCCNC(=N)N)NC(=O)[C@H](Cc1ccccc1)NC(=O)[C@H](Cc1ccccc1)NC(=O)[C@H](CC(=O)O)NC(=O)CNC(=O)[C@H](CC(C)C)NC(=O)[C@@H](N)CC(C)C)C(=O)NCC(=O)N[C@@H](CCCCN)C(=O)N[C@@H](CCC(=O)O)C(=O)N[C@@H](Cc1ccccc1)C(=O)N[C@@H](CCCCN)C(=O)N[C@@H](CCCNC(=N)N)C(=O)N[C@H](C(=O)N[C@H](C(=O)N[C@@H](CCC(N)=O)C(=O)N[C@@H](CCCNC(=N)N)C(=O)N[C@H](C(=O)N[C@@H](CCCCN)C(=O)N[C@@H](CC(=O)O)C(=O)N[C@@H](Cc1ccccc1)C(=O)N[C@@H](CC(C)C)C(=O)N[C@@H](CCCNC(=N)N)C(=O)N[C@@H](CC(N)=O)C(=O)N[C@@H](CC(C)C)C(=O)N[C@H](C(=O)N1CCC[C@H]1C(=O)N[C@@H](CCCNC(=N)N)C(=O)N[C@H](C(=O)N[C@@H](CCC(=O)O)C(=O)N[C@@H](CO)C(=O)O)[C@@H](C)O)C(C)C)[C@@H](C)CC)C(C)C)[C@@H](C)CC` [LL-37], the uncleaved peptide on Proteinase K [1] was ~ 5%. For the same compound, the “incubation time after which the LL-37 band (4.5 kDa) starts fading” value on Proteinase K [2] is reported as 20 min.

The values are drawn from PMC7181047, “Flame-Made Calcium Phosphate Nanoparticles with High Drug Loading for Delivery of Biologics” (Molecules, 2020).
